Test system: TH positive dopaminergic neurons injured with MPP+
Experiment: MPP+ toxicity on TH positive dopaminergic neurons of primary mesencephalic culture
Type: cell-based, rat
Details: MPP+ 4 μM, 48 h
Procedure: Rat dopaminergic neurons were cultured as described by Schinelli et al., J Neurochem. 1988 June; 50(6):1900-7 and Visanji et al., 2008 [previously cited].
Briefly, the midbrains obtained from 15-days old rat embryos (Janvier Labs, France) were dissected under a microscope. The embryonic midbrains were removed and placed in ice-cold medium of Leibovitz (L15, Pan Biotech) containing 2% of Penicillin-Streptomycin (PS, Pan Biotech) and 1% of bovine serum albumin (BSA, Pan Biotech). The ventral portion of the mesencephalic flexure, a region of the developing brain rich in dopaminergic neurons, was used for the cell preparations.
The midbrains were dissociated by trypsinisation for 20 min at 37° C. (Trypsin 0.05% EDTA 0.02%, PanBiotech). The reaction was stopped by the addition of Dulbecco's modified Eagle's medium (DMEM, PanBiotech) containing DNAase I grade II (0.1 mg/ml, PanBiotech) and 10% of foetal calf serum (FCS, Gibco). Cells were then mechanically dissociated by 3 passages through a 10 ml pipette. Cells were then centrifuged at 180×g for 10 min at +4° C. on a layer of BSA (3.5%) in L15 medium. The supernatant was discarded and the cell pellets were re-suspended in a defined culture medium consisting of Neurobasal (Invitrogen) supplemented with B27 (2%, Invitrogen, Batch: 1589889), L-glutamine (2 mM, PanBiotech) and 2% of PS solution and 10 ng/ml of Brain-derived neurotrophic factor (BDNF, PanBiotech) and 1 ng/ml of Glial-Derived Neurotrophic Factor (GDNF, PanBiotech). Viable cells were counted in a Neubauer cytometer using the trypan blue exclusion test. The cells were seeded at a density of 40 000 cells/well in 96 well-plates pre-coated with poly-L-lysine (Corning Biocoat) and maintained in a humidified incubator at 37° C. in 5% CO2/95% air atmosphere. Half of the medium was changed every 2 days with fresh medium.
On day 6 of culture, the medium was removed and fresh medium was added, without or with MPP^+ (Sigma) at 4 μM diluted in control medium, 6 wells per condition were assessed.
On day 6 of culture, NSP01-001-E001 (2.5, 5, 50, 500 ng/ml, 2.5, 5, 25, 33.3 μg/ml) were solved or diluted in culture medium and then pre-incubated with primary mesencephalic neurons for 1 hour before the MPP^+ application. MPP^+ solution was added to a final concentration of 4 μM diluted in control medium.
After 48 hours intoxication, the cells were then fixed by a solution of 4% paraformaldehyde (PFA, Sigma) in PBS (PAN), pH=7.3 for 20 min at room temperature. The cells were washed again twice in PBS, and then were permeabilized and non-specific sites were blocked with a solution of PBS containing 0.1% of saponin (Sigma) and 1% FCS for 15 min at room temperature. Then, cells were incubated with Monoclonal Anti-Tyrosine Hydroxylase (TH, Sigma) antibody produced in mouse at dilution of 1/10000 in PBS containing 1% FCS, 0.1% saponin, for 2 h at room temperature.
The immunolabeled cultures were automatically examined with ImageXpress (Molecular Devices) equipped with a LED at ×10 magnification. For each condition (6 culture wells), 20 automatically fields per well (representing ˜80% of the total surface of the well) were analyzed. The total number of TH neurons was automatically analyzed using MetaXpress software (Molecular Devices). Data were expressed in percentage of control conditions (no intoxication, no MPP^+=100%) in order to express the MPP^+ injury. All values were expressed as mean±SEM (s.e. mean) of the 6 wells. Graphs and statistical analyses were performed on the different conditions (ANOVA followed by Dunnett's or PLSD Fisher's test when allowed, using GraphPad Prism software).
The protocol used in these assays is the same as described in example 4.
HA (1, 10, 100 nM, 1, 10, 100 μM), CA (5, 50, 500 pM, 5, 50, 500 nM, 1 μM), FA (100 pM, 1, 10, 100 nM, 1, 10, 100 μM and 1 mM) and mixtures thereof were solved or diluted in culture medium and then pre-incubated with primary mesencephalic neurons for 1 hour before the MPP^+ application. […]

SMILES: O=C(O)/C=C/c1ccc(O)c(O)c1 [CA, caffeic acid]
- TH positive neuron survival (5 nM up to 1 μM): large and significant protective effect

SMILES: C/C=C1\[C@H]2C=C(C)C[C@]1(N)c1ccc(=O)[nH]c1C2 [HA, huperzine A, reference compound]
- TH positive neuron survival (1 nM): inactive
- TH positive neuron survival (100 nM): > 90%
- TH positive neuron survival (100 μM (in some well toxicity occurred)): did not show some protective effect
- TH positive neuron survival (from 10 nM up to 10 μM): large and significant protective effect

SMILES: COc1cc(/C=C/C(=O)O)ccc1O [FA, ferulic acid]
- concentration of maximal effect (bell shape curve): 10 µM
- TH positive neuron survival (100 pM up to 100 nM): inactive
- TH positive neuron survival (from 1 μM to 1 mM): significant protective effect

From patent US10596166B2, “Combination composition comprising huperzine” (priority 2015, dated 2020)
